Like-named read-outs stand apart in the source and are kept apart here.
Assays:
[1] = target: JH2 domain of human Tyk2 (Homo sapiens (Human), UniProt P29597); assay: JH2 Biochemical Assay (TR-FRET probe displacement); format: binding
[2] = target: Tyk2 (Homo sapiens (Human), UniProt P29597); assay: pSTAT4 Cell Assay (MSD, NK92 cells); format: cell-based
[3] = JH2 domain of human Tyk2, TR-FRET probe displacement
[4] = TR-FRET probe displacement, JH2 domain

Sequence of JH2 domain of human Tyk2 (P29597 575-876): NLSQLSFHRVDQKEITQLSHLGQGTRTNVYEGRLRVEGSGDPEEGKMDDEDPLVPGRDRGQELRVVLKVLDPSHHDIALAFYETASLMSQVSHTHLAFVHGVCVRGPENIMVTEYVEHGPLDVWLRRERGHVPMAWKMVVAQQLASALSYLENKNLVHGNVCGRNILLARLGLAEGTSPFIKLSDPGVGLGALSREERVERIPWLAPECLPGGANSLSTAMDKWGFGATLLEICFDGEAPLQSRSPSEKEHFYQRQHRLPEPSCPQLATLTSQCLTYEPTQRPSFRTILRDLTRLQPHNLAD
Sequence of Tyk2 (P29597 whole entry, the tested form may be a part): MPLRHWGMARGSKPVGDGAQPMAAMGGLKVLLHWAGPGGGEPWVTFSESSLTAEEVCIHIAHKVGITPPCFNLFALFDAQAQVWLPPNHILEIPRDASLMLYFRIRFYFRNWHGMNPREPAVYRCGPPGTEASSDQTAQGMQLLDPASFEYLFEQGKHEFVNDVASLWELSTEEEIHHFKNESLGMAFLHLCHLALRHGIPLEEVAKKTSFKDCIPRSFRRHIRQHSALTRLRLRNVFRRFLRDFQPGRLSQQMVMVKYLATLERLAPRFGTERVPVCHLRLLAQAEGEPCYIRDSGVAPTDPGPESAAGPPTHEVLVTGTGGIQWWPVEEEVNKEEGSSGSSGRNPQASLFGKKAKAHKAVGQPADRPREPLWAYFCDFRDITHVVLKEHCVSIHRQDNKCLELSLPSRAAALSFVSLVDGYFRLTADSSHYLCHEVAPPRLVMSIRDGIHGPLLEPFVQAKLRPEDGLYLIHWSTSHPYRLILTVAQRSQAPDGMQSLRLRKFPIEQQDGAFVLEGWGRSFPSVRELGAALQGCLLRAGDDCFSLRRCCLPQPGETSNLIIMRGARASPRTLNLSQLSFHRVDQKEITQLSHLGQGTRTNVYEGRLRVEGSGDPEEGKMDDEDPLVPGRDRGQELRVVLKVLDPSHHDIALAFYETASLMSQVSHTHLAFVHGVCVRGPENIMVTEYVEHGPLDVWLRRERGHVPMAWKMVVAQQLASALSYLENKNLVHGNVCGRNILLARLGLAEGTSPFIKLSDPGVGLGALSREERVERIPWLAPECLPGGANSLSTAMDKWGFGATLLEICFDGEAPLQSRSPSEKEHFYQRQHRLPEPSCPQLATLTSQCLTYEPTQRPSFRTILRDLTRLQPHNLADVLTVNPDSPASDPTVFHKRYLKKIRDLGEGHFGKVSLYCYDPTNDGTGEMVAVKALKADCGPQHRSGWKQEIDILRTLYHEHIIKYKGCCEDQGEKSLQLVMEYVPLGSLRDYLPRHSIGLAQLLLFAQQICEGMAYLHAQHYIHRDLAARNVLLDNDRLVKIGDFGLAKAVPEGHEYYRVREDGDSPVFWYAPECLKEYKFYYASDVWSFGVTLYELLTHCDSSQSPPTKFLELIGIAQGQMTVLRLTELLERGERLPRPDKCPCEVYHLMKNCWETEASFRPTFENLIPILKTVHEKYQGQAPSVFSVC

Q: For CCn1ncc(-c2cnc(NC(C)=O)cc2Nc2ccnc(C(C)(F)F)n2)n1 [Example 709, N-(4-((2-(1,1-difluoroethyl)pyrimidin-4-yl)amino)-5-(2-ethyl-2H-1,2,3-triazol-4-yl)pyridin-2-yl)acetamide], which IC50 [1, 3] is on record?
A: ≤ 10 nM

Q: What about the IC50 ([2]; MSD) of the same compound?
A: 10 to 100 nM

Q: Which IC50 [1, 3] does the source give for COCn1ncc(-c2cnc(NC(C)=O)cc2Nc2ccnc(C(C)(F)F)n2)n1 [Example 711, N-(4-((2-(1,1-difluoroethyl)pyrimidin-4-yl)amino)-5-(2-(methoxymethyl)-2H-1,2,3-triazol-4-yl)pyridin-2-yl)acetamide] here?
A: ≤ 10 nM

Q: And the IC50 ([2]; MSD)?
A: 10 to 100 nM

Q: COc1nc(-c2cnc(NC(C)=O)cc2Nc2ccnc(C(C)(F)F)n2)cs1 [Example 712, N-(4-((2-(1,1-difluoroethyl)pyrimidin-4-yl)amino)-5-(2-methoxythiazol-4-yl)pyridin-2-yl)acetamide] was tested. Which IC50 [1, 3] did it give?
A: ≤ 10 nM

Q: And the IC50 ([2]; MSD)?
A: ≤ 10 nM

Q: What does the source list for CCc1nnc(-c2cnc(NC(C)=O)cc2Nc2ccnc(C(C)(F)F)n2)s1 [Example 714, N-(4-((2-(1,1-difluoroethyl)pyrimidin-4-yl)amino)-5-(5-ethyl-1,3,4-thiadiazol-2-yl)pyridin-2-yl)acetamide]?
A: IC50 [1, 3]: ≤ 10 nM; IC50 ([2]; MSD): ≤ 10 nM

Q: How did the IC50 [1, 3] turn out when CC(=O)Nc1cc(Nc2ccnc(C(C)(F)F)n2)c(-c2nc(C)ns2)cn1 [Example 716, N-(4-((2-(1,1-difluoroethyl)pyrimidin-4-yl)amino)-5-(3-methyl-1,2,4-thiadiazol-5-yl)pyridin-2-yl)acetamide] was run?
A: ≤ 10 nM

Q: And the IC50 ([2]; MSD)?
A: 10 to 100 nM

Q: Which IC50 [1, 3] does the source give for CC(=O)Nc1cc(Nc2ccnc(C(C)(F)F)n2)c(-c2ccc3c(n2)CCC3=O)cn1 [Example 718, N-(4-((2-(1,1-difluoroethyl)pyrimidin-4-yl)amino)-5-(5-oxO6,7-dihydrO5H-cyclopenta[b]pyridin-2-yl)pyridin-2-yl)acetamide] here?
A: ≤ 10 nM

Q: And the IC50 ([2]; MSD)?
A: 10 to 100 nM

Q: What does the source list for CCc1cc(Nc2cc(NC(C)=O)ncc2-c2ccnc(COC)n2)nc(C(C)(F)F)n1 [Example 720, N-(4-((2-(1,1-difluoroethyl)-6-ethylpyrimidin-4-yl)amino)-5-(2-(methoxymethyl)pyrimidin-4-yl)pyridin-2-yl)acetamide]?
A: IC50 [1, 3]: ≤ 10 nM; IC50 ([2]; MSD): ≤ 10 nM

Q: With CC(=O)Nc1cc(Nc2cncc(C(C)(C)F)c2)c(-c2ccc(C(C)(C)O)cn2)cn1 [Example 722, N-(4′-((5-(2-fluoropropan-2-yl)pyridin-3-yl)amino)-5-(2-hydroxypropan-2-yl)-[2,3′-bipyridin]-6′-yl)acetamide] as the compound, how does the IC50 [1, 3] read?
A: ≤ 10 nM

Q: And the IC50 ([2]; MSD)?
A: ≤ 10 nM

Q: With CC(=O)Nc1cc(Nc2cc(C)nc(C(C)(C)F)n2)c(-c2ncc(F)cn2)cn1 [Example 723, N-(4-((2-(2-fluoropropan-2-yl)-6-methylpyrimidin-4-yl)amino)-5-(5-fluoropyrimidin-2-yl)pyridin-2-yl)acetamide] as the compound, how does the IC50 [1, 3] read?
A: ≤ 10 nM

Q: And the IC50 ([2]; MSD)?
A: 10 to 100 nM

Q: Which results are given for CC(=O)Nc1cc(Nc2ccnc(C(C)(F)F)n2)c(-n2cc(C)cn2)cn1 [Example 728, N-(4-((2-(1,1-difluoroethyl)pyrimidin-4-yl)amino)-5-(4-methyl-1H-pyrazol-1-yl)pyridin-2-yl)acetamide]?
A: IC50 [1, 3]: ≤ 10 nM; IC50 ([2]; MSD): 10 to 100 nM

Q: For CC(=O)Nc1cc(Nc2cc(C)nc(C(C)(F)F)n2)c(-n2cc(C)cn2)cn1 [Example 729, N-(4-((2-(1,1-difluoroethyl)-6-methylpyrimidin-4-yl)amino)-5-(4-methyl-1H-pyrazol-1-yl)pyridin-2-yl)acetamide], which IC50 [1, 3] is on record?
A: ≤ 10 nM

Q: And the IC50 ([2]; MSD)?
A: ≤ 10 nM

Q: How did the IC50 [1, 3] turn out when COc1cnn(-c2cnc(NC(C)=O)cc2Nc2ccnc(C(C)(F)F)n2)c1 [Example 730, N-(4-((2-(1,1-difluoroethyl)pyrimidin-4-yl)amino)-5-(4-methoxy-1H-pyrazol-1-yl)pyridin-2-yl)acetamide] was run?
A: 10 to 100 nM

Q: What about the IC50 ([2]; MSD) of the same compound?
A: 100 to 1000 nM

Q: COc1cnn(-c2cnc(NC(C)=O)cc2Nc2cc(C)nc(C(C)(F)F)n2)c1 [Example 731, N-(4-((2-(1,1-difluoroethyl)-6-methylpyrimidin-4-yl)amino)-5-(4-methoxy-1H-pyrazol-1-yl)pyridin-2-yl)acetamide] was tested. Which IC50 [1, 3] did it give?
A: ≤ 10 nM

Q: And the IC50 ([2]; MSD)?
A: 10 to 100 nM

Q: With CC(=O)Nc1cc(Nc2cc(C)nc(C(C)(F)F)n2)c(-n2cc(C#N)cn2)cn1 [Example 733, N-(5-(4-cyanO1H-pyrazol-1-yl)-4-((2-(1,1-difluoroethyl)-6-methylpyrimidin-4-yl)amino)pyridin-2-yl)acetamide] as the compound, how does the IC50 [1, 3] read?
A: ≤ 10 nM

Q: What about the IC50 ([2]; MSD) of the same compound?
A: 100 to 1000 nM

Q: Which results are given for CC(=O)Nc1cc(Nc2ccnc(C(C)(F)F)n2)c(-c2cc3n(n2)CCN(CC#N)C3)cn1 [Example 736, N-(5-(5-(cyanomethyl)-4,5,6,7-tetrahydropyrazolo[1,5-a]pyrazin-2-yl)-4-((2-(1,1-difluoroethyl)pyrimidin-4-yl)amino)pyridin-2-yl)acetamide]?
A: IC50 [1, 3]: ≤ 10 nM; IC50 ([2]; MSD): ≤ 10 nM

Q: What does the source list for CC(=O)Nc1cc(Nc2cc(C)nc(C(C)(F)F)n2)c(-c2ncc(CN(C)C)s2)cn1 [Example 737, N-(4-((2-(1,1-difluoroethyl)-6-methylpyrimidin-4-yl)amino)-5-(5-((dimethylamino)methyl)thiazol-2-yl)pyridin-2-yl)acetamide]?
A: IC50 [1, 3]: ≤ 10 nM; IC50 ([2]; MSD): ≤ 10 nM

Q: How did the IC50 [1, 3] turn out when CC(=O)Nc1cc(Nc2cc(C)nc(C(C)(F)F)n2)c(-c2ncc(CN3CCCC3)s2)cn1 [Example 738, N-(4-((2-(1,1-difluoroethyl)-6-methylpyrimidin-4-yl)amino)-5-(5-(pyrrolidin-1-ylmethyl)thiazol-2-yl)pyridin-2-yl)acetamide] was run?
A: ≤ 10 nM

Q: And the IC50 ([2]; MSD)?
A: ≤ 10 nM

Q: For CC(=O)Nc1cc(Nc2cc(C)nc(C(C)(F)F)n2)c(-c2cc(CN(C)C)ccn2)cn1 [Example 740, N-(4′-((2-(1,1-difluoroethyl)-6-methylpyrimidin-4-yl)amino)-4-((dimethylamino)methyl)-[2,3′-bipyridin]-6′-yl)acetamide], which IC50 [1, 3] is on record?
A: ≤ 10 nM

Q: What about the IC50 ([2]; MSD) of the same compound?
A: ≤ 10 nM

Q: Which results are given for CC(=O)Nc1cc(Nc2cc(C)nc(C(C)(F)F)n2)c(-c2cnc(C(C)N(C)C)cn2)cn1 (stereo not drawn) [Example 741, N-(4-((2-(1,1-difluoroethyl)-6-methylpyrimidin-4-yl)amino)-5-(5-(1-(dimethylamino)ethyl)pyrazin-2-yl)pyridin-2-yl)acetamide]?
A: IC50 [1, 3]: ≤ 10 nM; IC50 ([2]; MSD): ≤ 10 nM

Q: For CC(=O)Nc1cc(Nc2cc(C)nc(C(C)(F)F)n2)c(-c2cc(C(C)N(C)C)ccn2)cn1 (stereo not drawn) [Example 743, N-(4′-((2-(1,1-difluoroethyl)-6-methylpyrimidin-4-yl)amino)-4-(1-(dimethylamino)ethyl)-[2,3′-bipyridin]-6′-yl)acetamide], which IC50 [1, 3] is on record?
A: ≤ 10 nM

Q: What about the IC50 ([2]; MSD) of the same compound?
A: 10 to 100 nM

Q: With COCCc1cc(-c2cnc(NC(C)=O)cc2Nc2cc(C)nc(C(C)(F)F)n2)ncn1 [Example 745, N-(4-((2-(1,1-difluoroethyl)-6-methylpyrimidin-4-yl)amino)-5-(6-(2-methoxyethyl)pyrimidin-4-yl)pyridin-2-yl)acetamide] as the compound, how does the IC50 [1, 3] read?
A: ≤ 10 nM

Q: What about the IC50 ([2]; MSD) of the same compound?
A: 10 to 100 nM

Q: For COc1ccc(-c2cnc(NC(C)=O)cc2Nc2cc(C)nc(C34COC(C3)C4)n2)nn1 [Example 749, N-(4-((2-(2-oxabicyclo[2.1.1]hexan-4-yl)-6-methylpyrimidin-4-yl)amino)-5-(6-methoxypyridazin-3-yl)pyridin-2-yl)acetamide], which IC50 [1, 4] is on record?
A: ≤ 10 nM

Q: And the IC50 [2]?
A: 10 to 100 nM

Q: How did the IC50 [1, 4] turn out when COc1cc(-c2cnc(NC(C)=O)cc2Nc2cc(C)nc(C34COC(C3)C4)n2)ncn1 [Example 750, N-(4-((2-(2-oxabicyclo[2.1.1]hexan-4-yl)-6-methylpyrimidin-4-yl)amino)-5-(6-methoxypyrimidin-4-yl)pyridin-2-yl)acetamide] was run?
A: ≤ 10 nM

Q: What about the IC50 [2] of the same compound?
A: 100 to 1000 nM

Q: For COc1cnnc(-c2cnc(NC(C)=O)cc2Nc2cc(C)nc(C(C)(F)F)n2)c1 [Example 753, N-(4-((2-(1,1-difluoroethyl)-6-methylpyrimidin-4-yl)amino)-5-(5-methoxypyridazin-3-yl)pyridin-2-yl)acetamide], which IC50 [1, 4] is on record?
A: ≤ 10 nM

Q: What about the IC50 [2] of the same compound?
A: ≥ 1000 nM

Q: Which results are given for COC(C)(C)c1cc(-c2cnc(NC(C)=O)cc2Nc2cc(C)nc(C(C)(F)F)n2)nn1C [Example 758, N-(4-((2-(1,1-difluoroethyl)-6-methylpyrimidin-4-yl)amino)-5-(5-(2-methoxypropan-2-yl)-1-methyl-1H-pyrazol-3-yl)pyridin-2-yl)acetamide]?
A: IC50 [1, 4]: ≤ 10 nM; IC50 [2]: ≤ 10 nM

Q: What does the source list for CC(=O)Nc1cc(Nc2cc(C)nc(C(C)(F)F)n2)c(-c2nc3n(n2)CCN(C)C3)cn1 [Example 759, N-(4-((2-(1,1-difluoroethyl)-6-methylpyrimidin-4-yl)amino)-5-(7-methyl-5,6,7,8-tetrahydro[1,2,4]triazolo[1,5-a]pyrazin-2-yl)pyridin-2-yl)acetamide]?
A: IC50 [1, 4]: ≤ 10 nM; IC50 [2]: 10 to 100 nM

Q: What does the source list for CC(=O)Nc1cc(Nc2cc(C)nc(C(C)(F)F)n2)c(-c2nc3n(n2)CCOC3)cn1 [Example 760, N-(4-((2-(1,1-difluoroethyl)-6-methylpyrimidin-4-yl)amino)-5-(5,6-dihydrO8H-[1,2,4]triazolo[5,1-c][1,4]oxazin-2-yl)pyridin-2-yl)acetamide]?
A: IC50 [1, 4]: ≤ 10 nM; IC50 [2]: 10 to 100 nM

Q: Which IC50 [1, 4] does the source give for CC(=O)Nc1cc(Nc2cc(C)nc(C(C)(F)F)n2)c(-c2ccsn2)cn1 [Example 761, N-(4-((2-(1,1-difluoroethyl)-6-methylpyrimidin-4-yl)amino)-5-(isothiazol-3-yl)pyridin-2-yl)acetamide] here?
A: ≤ 10 nM

Q: And the IC50 [2]?
A: ≥ 1000 nM

Q: How did the IC50 [1, 4] turn out when COCc1nsc(-c2cnc(NC(C)=O)cc2Nc2cc(C)nc(C(C)(F)F)n2)n1 [Example 762, N-(4-((2-(1,1-difluoroethyl)-6-methylpyrimidin-4-yl)amino)-5-(3-(methoxymethyl)-1,2,4-thiadiazol-5-yl)pyridin-2-yl)acetamide] was run?
A: ≤ 10 nM

Q: And the IC50 [2]?
A: ≤ 10 nM

Q: With CC(=O)Nc1cc(Nc2cc(C)nc(C(C)(F)F)n2)c(-c2nsc(N(C)C)n2)cn1 [Example 763, N-(4-((2-(1,1-difluoroethyl)-6-methylpyrimidin-4-yl)amino)-5-(5-(dimethylamino)-1,2,4-thiadiazol-3-yl)pyridin-2-yl)acetamide] as the compound, how does the IC50 [1, 4] read?
A: ≤ 10 nM

Q: What about the IC50 [2] of the same compound?
A: 100 to 1000 nM

Reference: patent publication US20260028365A1 (BIOGEN MA INC., priority 2022, published 2026)
